Measurements taken from patent US12030904B2 (priority 2020, dated 2024).
Where two headings read alike, the source gives them in different places.

Columns and labels:
[1] = test system: Recombinant Respiratory Syncytial virus strain A2 containing the firefly luciferase reporter (RSV-Fluc); test: microbe, parasite or virus in culture; type: cell-based; conditions: human respiratory syncytial virus, NHBE
[2] = test system: SARS-CoV-2; test: microbe, parasite or virus in culture; type: cell-based; conditions: Severe acute respiratory syndrome coronavirus 2, read-out: SARS EC50
[3] = MT4 cytotoxicity (CC50); conditions: human, MT4 cells
[4] = 72 h, read-out: RSV-Fluc EC50 (NHBE), NHBE cells, three days, Table 2

| SMILES | EC50 ([1]; read-out: RSV EC50, Table 4) [nM] | EC50 [2] [nM] | CC50 ([3]; MT4 CC50, Table 4) [nM] | EC50 [1, 4] [nM] | EC50 ([1]; read-out: RSV EC50, Table 2a) [nM] | CC50 ([3]; MT4 CC50, Table 2a) [nM] |
| --- | --- | --- | --- | --- | --- | --- |
| CCCCCCCCCCCCCCCCCOCC[C@H](COP(=O)(O)OC[C@H]1O[C@@](C#N)(c2ccc3c(N)ncnn23)[C@H](O)[C@@H]1O)OCc1ccc(C#N)cc1 [Example 111, [(2R,3S,4R,5R)-5-(4-Aminopyrrolo[2,1-f][1,2,4]triazin-7-yl)-5-cyano-3,4-dihydroxy-tetrahydrofuran-2-yl]methyl [(2R)-2-[(4-cyanophenyl)methoxy]-4-heptadecoxy-butyl] hydrogen phosphate] | 499 | 3500 | 18900 | – | – | – |
| CCCCCCCCCCCCCCCCCCOC[C@H](COP(=O)(O)OC[C@H]1O[C@@](C#N)(c2ccc3c(N)ncnn23)[C@H](O)[C@@H]1O)Oc1cnc(C#N)c(OC)c1 [Example 83, ((2R,3S,4R,5R)-5-(4-aminopyrrolo[2,1-f][1,2,4]triazin-7-yl)-5-cyano-3,4-dihydroxytetrahydrofuran-2-yl)methyl ((R)-2-((6-cyano-5-methoxypyridin-3-yl)oxy)-3-(octadecyloxy)propyl) hydrogen phosphate] | 5 | 40 | 164 | – | – | – |
| CCCCCCCCCCCCCCOCCCOP(=O)(O)OC[C@H]1O[C@@](C#N)(c2ccc3c(N)ncnn23)[C@H](O)[C@@H]1O [Example 58, ((2R,3S,4R,5R)-5-(4-Aminopyrrolo[2,1-f][1,2,4]triazin-7-yl)-5-cyano-3,4-dihydroxytetrahydrofuran-2-yl)methyl (3-(tetradecyloxy)propyl) hydrogen phosphate] | – | 10000 | – | 70 | 70 | 13000 |
| CCCCCCCCCCCCOCCCOP(=O)(O)OC[C@H]1O[C@@](C#N)(c2ccc3c(N)ncnn23)[C@H](O)[C@@H]1O [Example 57, ((2R,3S,4R,5R)-5-(4-Aminopyrrolo[2,1-f][1,2,4]triazin-7-yl)-5-cyano-3,4-dihydroxytetrahydrofuran-2-yl)methyl (3-(dodecyloxy)propyl) hydrogen phosphate] | – | 10000 | – | 2200 | 2180 | 50000 |
| CCCCCCCCCCCCCCCCCOC[C@H](COP(=O)(O)OC[C@H]1O[C@@](C#N)(c2ccc3c(N)ncnn23)[C@H](O)[C@@H]1O)OCc1ccc(C#N)c(F)c1 [Example 94, ((2R,3S,4R,5R)-5-(4-aminopyrrolo[2,1-f][1,2,4]triazin-7-yl)-5-cyano-3,4-dihydroxytetrahydrofuran-2-yl)methyl ((R)-2-((4-cyano-3-fluorobenzyl)oxy)-3-(heptadecyloxy)propyl) hydrogen phosphate] | 38 | 38 | 273 | – | – | – |
| CCCCCCCCCCCCCCCCCOCCCOP(=O)(O)OC[C@H]1O[C@@](C#N)(c2ccc3c(N)ncnn23)[C@H](O)[C@@H]1O [Example 55, ((2R,3S,4R,5R)-5-(4-aminopyrrolo[2,1-f][1,2,4]triazin-7-yl)-5-cyano-3,4-dihydroxytetrahydrofuran-2-yl)methyl (3-(heptadecyloxy)propyl) hydrogen phosphate] | – | 9420 | – | – | 86 | 29900 |
| CCCCCCCCCCCCCCCCCCOC[C@H](COP(=O)(O)OC[C@H]1O[C@@](C#N)(c2ccc3c(N)ncnn23)[C@H](O)[C@@H]1O)OCc1ccc(Cl)c(C#N)c1 [Example 108, [(2R,3S,4R,5R)-5-(4-aminopyrrolo[2,1-f][1,2,4]triazin-7-yl)-5-cyano-3,4-dihydroxy-tetrahydrofuran-2-yl]methyl [(2R)-2-[(4-chloro-3-cyano-phenyl)methoxy]-3-octadecoxy-propyl] hydrogen phosphate] | 83 | 220 | 713 | – | – | – |
| CCCCCCCCCCCCCCCCCCOC[C@H](COP(=O)(O)OC[C@H]1O[C@@](C#N)(c2ccc3c(N)ncnn23)[C@H](O)[C@@H]1O)OCc1ccc(C#N)cc1F [Example 53, ((2R,3S,4R,5R)-5-(4-aminopyrrolo[2,1-f][1,2,4]triazin-7-yl)-5-cyano-3,4-dihydroxytetrahydrofuran-2-yl)methyl ((R)-2-((4-cyano-2-fluorobenzyl)oxy)-3-(octadecyloxy)propyl) hydrogen phosphate] | – | 912 | – | – | 32 | 1840 |
| CCCCCCCCCCCCCCCOC[C@H](COP(=O)(O)OC[C@H]1O[C@@](C#N)(c2ccc3c(N)ncnn23)[C@H](O)[C@@H]1O)OCc1ccc(C#N)cc1F [Example 102, [(2R,3S,4R,5R)-5-(4-aminopyrrolo[2,1-f][1,2,4]triazin-7-yl)-5-cyano-3,4-dihydroxy-tetrahydrofuran-2-yl]methyl [(2R)-2-[(4-cyano-2-fluoro-phenyl)methoxy]-3-pentadecoxy-propyl] hydrogen phosphate] | 21 | 120 | 4500 | – | – | – |
| CCCCCCCCCCCCCCCCCCOC[C@H](COP(=O)(O)OC[C@H]1O[C@@](C#N)(c2ccc3c(N)ncnn23)[C@H](O)[C@@H]1O)OCc1cccc(C(F)F)c1 [Example 32, ((2R,3S,4R,5R)-5-(4-aminopyrrolo[2,1-f][1,2,4]triazin-7-yl)-5-cyano-3,4-dihydroxytetrahydrofuran-2-yl)methyl ((R)-2-((3-(difluoromethyl)benzyl)oxy)-3-(octadecyloxy)propyl) hydrogen phosphate] | – | 3040 | – | – | 64 | 2660 |
| CCCCCCCCCCCCCCCCCCOC[C@@H](COP(=O)(O)OC[C@H]1O[C@@](C#N)(c2ccc3c(N)ncnn23)[C@H](O)[C@@H]1O)OCc1cc(F)cc(C#N)c1 [Example 93, ((2R,3S,4R,5R)-5-(4-aminopyrrolo[2,1-f][1,2,4]triazin-7-yl)-5-cyano-3,4-dihydroxytetrahydrofuran-2-yl)methyl ((S)-2-((3-cyano-5-fluorobenzyl)oxy)-3-(octadecyloxy)propyl) hydrogen phosphate] | 79 | 450 | 1730 | – | – | – |
| CCCCCCCCCCCCCCCCCCOC[C@H](COP(=O)(O)OC[C@H]1O[C@@](C#N)(c2ccc3c(N)ncnn23)[C@H](O)[C@@H]1O)OCc1ccccc1F [Example 42, ((2R,3S,4R,5R)-5-(4-aminopyrrolo[2,1-f][1,2,4]triazin-7-yl)-5-cyano-3,4-dihydroxytetrahydrofuran-2-yl)methyl ((R)-2-((2-fluorobenzyl)oxy)-3-(octadecyloxy)propyl) hydrogen phosphate] | – | 593 | – | 35 | 36 | 2220 |
| CCCCCCCCCCCCCCCCCCOC[C@H](COP(=O)(O)OC[C@H]1O[C@@](C#N)(c2ccc3c(N)ncnn23)[C@H](O)[C@@H]1O)OCc1ccc(C(F)(F)F)nc1 [Example 123, [(2R,3S,4R,5R)-5-(4-Aminopyrrolo[2,1-f][1,2,4]triazin-7-yl)-5-cyano-3,4-dihydroxy-tetrahydrofuran-2-yl]methyl [(2R)-3-octadecoxy-2-[[6-(trifluoromethyl)-3-pyridyl]methoxy]propyl] hydrogen phosphate] | 55 | 340 | 1040 | – | – | – |
| CCCCCCCCCCCCCCCCCCOC[C@H](COP(=O)(O)OC[C@H]1O[C@@](C#N)(c2ccc3c(N)ncnn23)[C@H](O)[C@@H]1O)n1cnc(C#N)c1 [Example 79, ((2R,3S,4R,5R)-5-(4-aminopyrrolo[2,1-f][1,2,4]triazin-7-yl)-5-cyano-3,4-dihydroxytetrahydrofuran-2-yl)methyl ((R)-2-(4-cyano-1H-imidazol-1-yl)-3-(octadecyloxy)propyl) hydrogen phosphate] | 103 | 330 | 10100 | – | – | – |
